pEC50: −log10 of the molar value. Values joined by “and” are separate entries in the source; they are usually repeats but may differ in a detail not shown here. Equal values may be shown once.

The target in this test is T1, recombinant human AMPK complex, containing α2β1γ2 (Homo sapiens, UniProt P54646+Q9Y478).
T1 construct: hsAMPKα2-552-His, hsAMPKβ1-2-270 and hsAMPKγ-2-569 respectively; hsAMPKβ1-2-270; hsAMPKγ-2-569; His (C); made in house; host or cells: Spodoptera frugiperda Sf21 (baculovirus)
Briefly: AMPK in vitro activation assay (HTRF). It counts as biochemical. To be noted: for pEC50: HTRF, recombinant human α2β1γ2 AMPK, 200 μM ATP, biotinylated ACC-CREBp peptide, repeat determinations on separate lines; for α2β1γ2 AMPK Emax / Emax: potentiation of AMPK activity as percent over the basal signal (without compound). As for the experimental part: The recombinant human AMPK complex, containing α2β1γ2 was obtained from baculovirus expression system and generated by cotransfection in Spodoptera frugiperda 21 (Sf21). […] were produced in serum free medium (SF900 II, Invitrogen) for 82 hours after a triple infection at a multiplicity of infection (M.O.I.) of 0.05, 0.06 and 0.045 for hsAMPKα2-552-His, hsAMPKβ1-2-270 and hsAMPKγ-2-569 respectively. Cells were harvested by centrifugation at 1,000×g for 10 minutes at 4° C. and stored at −80° C. The insect cell pellet from 8 liters of culture was resuspended and homogenized in 580 ml of lysis buffer (20 mM Hepes pH 7.5, 150 mM NaCl, 10 mM imidazole, 50 mM NaF, 10% Glycerol and supplemented with EDTA free proteases inhibitor cocktail Roche). The AMPK complex was partially purified using an affinity chromatography under a Ni-NTA Agarose column equilibrated in the lysis buffer and eluted with a gradient (0 to 400 mM) of Imidazol.
A homogeneous time-resolved fluorescence (HTRF) assay was used (Li et al, Anal. Biochem. (2003) 321, 151-156) to identify compounds with stimulating activity for the recombinant human AMPK. Enzyme reaction was performed into a 96-well microtiter plate. First, 20 μL of test compounds in 0.5% DMSO were dispensed followed by 10 μL of protein in 50 mM HEPES buffer at pH 7.0, 100 mM NaCl, 5 mM MgCl2, 0.01% BSA, 0.8 mM DTT. After, 30 min incubation at room temperature, the reaction was initiated by the addition of 10 μL of a solution containing 200 μM of ATP as donor substrate, 2 μM or 0.08 μM of biotinylated ACC-CREBp peptide (PolyPeptide) as acceptor. Plates were then incubated 45 min at 37° C. The reaction was terminated by the addition of 40 μl detection mixture containing Eu^3+ cryptate-conjugated anti-pS^133-CREB antibody and streptavidine-XL665 (CisBio). Plates were further incubated for 2 h30 at room temperature. The fluorescence signal was measured using an Envision multireader (Perkin Elmer). The non-specific signal was obtained without substrates. Potentiation of AMPK activity was expressed as a percent over the basal signal (without compound) from which an EC50 value was determined.
The EC50 of a graded dose response curve represents the concentration of a compound where 50% of its maximal effect is observed.

T1 sequence (P54646 2-552): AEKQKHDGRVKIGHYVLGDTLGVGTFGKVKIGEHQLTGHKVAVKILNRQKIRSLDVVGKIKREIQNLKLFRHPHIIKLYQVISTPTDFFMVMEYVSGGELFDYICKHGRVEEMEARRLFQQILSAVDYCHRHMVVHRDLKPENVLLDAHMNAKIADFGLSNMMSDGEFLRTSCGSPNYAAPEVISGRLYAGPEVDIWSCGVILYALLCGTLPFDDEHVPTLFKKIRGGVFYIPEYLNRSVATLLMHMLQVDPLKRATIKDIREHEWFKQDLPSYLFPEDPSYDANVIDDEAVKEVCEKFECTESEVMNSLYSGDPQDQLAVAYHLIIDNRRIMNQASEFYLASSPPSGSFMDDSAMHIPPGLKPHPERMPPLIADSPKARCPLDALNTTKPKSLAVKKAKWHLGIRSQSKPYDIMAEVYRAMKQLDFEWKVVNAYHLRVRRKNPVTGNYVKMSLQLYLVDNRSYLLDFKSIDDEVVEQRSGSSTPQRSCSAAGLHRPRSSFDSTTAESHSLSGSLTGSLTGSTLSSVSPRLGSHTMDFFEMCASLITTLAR
T1 sequence (Q9Y478 2-270): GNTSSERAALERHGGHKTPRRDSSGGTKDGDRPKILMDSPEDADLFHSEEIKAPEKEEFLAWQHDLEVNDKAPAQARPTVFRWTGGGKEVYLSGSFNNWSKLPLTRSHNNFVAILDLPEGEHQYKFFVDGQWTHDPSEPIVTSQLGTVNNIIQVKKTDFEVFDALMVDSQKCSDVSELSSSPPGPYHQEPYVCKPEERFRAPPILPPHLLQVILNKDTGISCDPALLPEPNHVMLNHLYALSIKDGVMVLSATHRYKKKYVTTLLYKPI
T1 sequence (Q9UGJ0 2-569 partner limits assumed): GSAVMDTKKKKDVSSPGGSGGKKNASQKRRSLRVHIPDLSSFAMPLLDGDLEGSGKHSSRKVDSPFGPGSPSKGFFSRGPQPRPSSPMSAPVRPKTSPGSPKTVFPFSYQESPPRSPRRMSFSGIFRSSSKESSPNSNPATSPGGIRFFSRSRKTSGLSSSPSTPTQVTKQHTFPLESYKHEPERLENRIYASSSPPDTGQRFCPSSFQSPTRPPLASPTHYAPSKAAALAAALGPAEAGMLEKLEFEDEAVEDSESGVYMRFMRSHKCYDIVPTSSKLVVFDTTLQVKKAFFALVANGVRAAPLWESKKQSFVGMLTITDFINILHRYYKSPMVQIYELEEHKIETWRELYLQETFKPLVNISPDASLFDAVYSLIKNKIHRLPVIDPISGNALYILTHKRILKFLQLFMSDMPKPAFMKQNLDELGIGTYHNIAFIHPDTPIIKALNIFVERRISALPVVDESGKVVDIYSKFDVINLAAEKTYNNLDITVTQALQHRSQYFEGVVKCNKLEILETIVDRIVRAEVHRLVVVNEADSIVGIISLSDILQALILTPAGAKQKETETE

For the compound “6-Chloro-3-[1-hydroxy-1-(3-methoxy-isoxazol-yl)-methylidene]-5-[4-(1-hydroxymethyl-cyclopropyl)-phenyl]-1,3-dihydro-indol-2-one [Compound 54]”, the negative-log EC50 (pEC50) is 8.30 and the “α2β1γ2 AMPK Emax” value is “(187) %”. On to `Cc1cc(C(O)=C2C(=O)Nc3cc(Cl)c(-c4ccc(N(C)C)cc4)cc32)on1` [Compound 1, 6-Chloro-5-(4-dimethylamino-phenyl)-3-[1-hydroxy-1-(3-methyl-isoxazol-5-yl)-methylidene]-1,3-dihydro-indol-2-one], for which the pEC50 was 7.68 and the “α2β1γ2 AMPK Emax” value was “(124 +/− 11) %”. Regarding `Cc1cc(C([O-])=C2C(=O)Nc3cc(Cl)c(-c4ccc(N(C)C)cc4)cc32)on1.[Na+]` [Compound 2, 6-Chloro-5-(4-dimethylamino-phenyl)-3-[1-hydroxy-1-(3-methyl-isoxazol-5-yl)-methylidene]-1,3-dihydro-indol-2-one, sodium salt], the pEC50 is 7.28 and the “α2β1γ2 AMPK Emax” value is reported as “(183 +/− 51) %”. Consider `O=C1Nc2cc(Cl)c(-c3ccc(N4CCOCC4)cc3)cc2C1=C(O)c1cccc(O)c1` [Compound 3, 6-Chloro-3-[1-hydroxy-1-(3-hydroxy-phenyl)-methylidene]-5-(4-morpholin-4-yl-phenyl)-1,3-dihydro-indol-2-one], for which the negative-log EC50 (pEC50) was 6.72 and the maximal effect (Emax) amounted to 138%. Taken in the same sequence, the figures for `O=C1Nc2cc(Cl)c(-c3ccc(N4CCOCC4)cc3)cc2C1=C(O)c1cccc(C(=O)O)c1` [Compound 4, 3-{[6-Chloro-5-(4-morpholin-4-yl-phenyl)-2-oxo-1,2-dihydro-indolylidene]-hydroxy-methyl}-benzoic acid] were 7.82 and 97%. Take `COc1cccc(-c2ccc(-c3cc4c(cc3Cl)NC(=O)C4=C(O)c3cc(C)no3)cc2)c1O` [Compound 5, 6-Chloro-5-(2′-hydroxy-3′-methoxy-biphenyl-4-yl)-3-[1-hydroxy-1-(3-methyl-isoxazol-5-yl)-meth-ylidene]-1,3-dihydro-indol-2-one]: the pEC50 is 8.40 and the maximal response (Emax) was 193%.

Consider `Cc1cc(C(O)=C2C(=O)Nc3cc(Cl)c(-c4ccc(C5(CO)CC5)cc4)cc32)on1` [Compound 6, 6-Chloro-5-[4-(1-hydroxymethyl-cyclopropyl)-phenyl]-3-[1-hydroxy-1-(3-methyl-isoxazol-5-yl)-methylidene]-1,3-dihydro-indol-2-one], for which the pEC50 was 8.15 and the Emax came out at 186%.

For `O=C1Nc2cc(Cl)c(-c3ccc(-c4ccccc4)cc3)cc2C1=C(O)c1ccccc1` [Compound 7, 5-Biphenyl-4-yl-6-chloro-3-[1-hydroxy-1-phenyl-methylidene]-1,3-dihydro-indol-2-one], the negative-log EC50 (pEC50) was 5.85 and the Emax was found to be 57%. Taken in the same sequence, the figures for `CN(C)c1ccc(-c2cc3c(cc2Cl)NC(=O)C3=C(O)c2cccc(C(=O)O)c2)cc1` [Compound 8, 3-{[6-Chloro-5-(4-dimethylamino-phenyl)-2-oxo-1,2-dihydro-indolylidene]-hydroxy-methyl}-benzoic acid] were 7.48 and 124%. As for `CN(C)c1ccc(-c2cc3c(cc2Cl)NC(=O)C3=C(O)c2ccc(C(=O)O)cc2)cc1` [Compound 9, 4-{[6-Chloro-5-(4-dimethylamino-phenyl)-2-oxo-1,2-dihydro-indolylidene]-hydroxy-methyl}-benzoic acid], the pEC50 is 7.62 and 7.64; the Emax is 120%.

With `Cc1ncc(C(O)=C2C(=O)Nc3cc(Cl)c(-c4ccc(N(C)C)cc4)cc32)s1` [Compound 10, 6-Chloro-5-(4-dimethylamino-phenyl)-3-[1-hydroxy-1-(2-methyl-thiazol-5-yl)-methylidene]-1,3-dihydro-indol-2-one], the negative logarithm of the EC50 (pEC50) was 7.05 and the Emax amounted to 127%. Taken in the same sequence, the figures for `O=C1Nc2cc(Cl)c(-c3ccc4ccccc4c3)cc2C1=C(O)c1cccc(F)c1` [Compound 11, 6-Chloro-3-[1-(3-fluoro-phenyl)-1-hydroxy-methylidene]-5-naphthalen-2-yl-1,3-dihydro-indol-2-one] were 5.40 and 95%. Taken in the same sequence, the figures for `COc1cc(C(O)=C2C(=O)Nc3cc(Cl)c(-c4ccc(-c5cccc(OC)c5O)cc4)cc32)on1` [Compound 12] were 9.00 and 172%. For the compound `Cc1cc(C(O)=C2C(=O)Nc3cc(Cl)c(-c4ccc(N5CCOCC5)cc4)cc32)sn1` [Compound 13, 6-Chloro-3-[1-hydroxy-1-(3-methyl-isothiazol-5-yl)-methylidene]-5-(4-morpholin-4-yl-phenyl)-1,3-dihydro-indol-2-one], the negative-log EC50 (pEC50) is 7.92 and 8.30.

Regarding `Cc1cc(C(O)=C2C(=O)Nc3cc(Cl)c(-c4ccc(N5CCOCC5)cc4)cc32)on1` [Compound 14, 6-Chloro-3-[1-hydroxy-1-(3-methyl-isoxazol-5-yl)-methylidene]-5-(4-morpholin-4-yl-phenyl)-1,3-dihydro-indol-2-one], the negative-log EC50 (pEC50) is 7.42 and the maximal effect (Emax) turned out to be 283%. As for `Cc1nc(C)c(C(O)=C2C(=O)Nc3cc(Cl)c(-c4ccc(N5CCOCC5)cc4)cc32)s1` [Compound 15, 6-Chloro-3-[1-(2,4-dimethyl-thiazol-5-yl)-1-hydroxy-methylidene]-5-(4-morpholin-4-yl-phenyl)-1,3-dihydro-indol-2-one], the pEC50 is 7.57 and the maximal response (Emax) came out at 257%.

As to `Cc1nnc(C(O)=C2C(=O)Nc3cc(Cl)c(-c4ccc(N5CCOCC5)cc4)cc32)o1` [Compound 16, 6-Chloro-3-[1-hydroxy-1-(5-methyl-[1,3,4]oxadiazol-2-yl)-methylidene]-5-(4-morpholin-4-yl-phenyl)-1,3-dihydro-indol-2-one], the pEC50 was 8.05 and the Emax was determined as 268%. For the compound `N#Cc1cccc(C(O)=C2C(=O)Nc3cc(Cl)c(-c4ccc(N5CCOCC5)cc4)cc32)c1` [Compound 18, 3-{[6-Chloro-5-(4-morpholin-4-yl-phenyl)-2-oxo-1,2-dihydro-indolylidene]-hydroxy-methyl}-benzonitrile], the pEC50 is 6.72 and the Emax worked out at 135%. On to `COc1ccc(-c2cc3c(cc2Cl)NC(=O)C3=C(O)c2cc(C)no2)cc1` [Compound 20, 6-Chloro-3-[1-hydroxy-1-(3-methyl-isoxazol-5-yl)-methylidene]-5-(4-methoxy-phenyl)-1,3-dihydro-indol-2-one], for which the pEC50 was 6.39 and the Emax is 223%. Turning to `Cc1cc(C(O)=C2C(=O)Nc3cc(Cl)c(-c4ccc(C5CC5)cc4)cc32)on1` [Compound 22, 6-Chloro-5-(4-cyclopropyl-phenyl)-3-[1-hydroxy-1-(3-methyl-isoxazol-5-yl)-methylidene]-1,3-dihydro-indol-2-one], the negative-log EC50 (pEC50) is 6.60 and the maximal effect (Emax) was 147%. Taken in the same sequence, the figures for `Cc1cc(C(O)=C2C(=O)Nc3cc(Cl)c(-c4ccc(C5(CO)CC5)cc4)cc32)sn1` [Compound 23, 6-Chloro-5-[4-(1-hydroxymethyl-cyclopropyl)-phenyl]-3-[1-hydroxy-1-(3-methyl-isothiazol-5-yl)-methylidene]-1,3-dihydro-indol-2-one] were 8.52 and 158%. As for `Cc1cc(C(O)=C2C(=O)Nc3cc(Cl)c(-c4ccc(N5CCCC5)cc4)cc32)on1` [Compound 24, 6-Chloro-3-[1-hydroxy-1-(3-methyl-isoxazol-5-yl)-methylidene]-5-(4-pyrrolidin-1-yl-phenyl)-1,3-dihydro-indol-2-one], the pEC50 is 6.96 and the maximum response (Emax) is 143%. Taken in the same sequence, the figures for `O=C1Nc2cc(Cl)c(-c3ccc(N4CCOCC4)cc3)cc2C1=C(O)c1cccnc1` [Compound 25, 6-Chloro-3-[1-hydroxy-1-pyridin-3-yl-methylidene]-5-(4-morpholin-4-yl-phenyl)-1,3-dihydro-indol-2-one] were 6.49 and 146%. Take `O=C1Nc2cc(Cl)c(-c3ccc(C4CC4)cc3)cc2C1=C(O)c1cccc(F)c1` [Compound 26, 6-Chloro-5-(4-cyclopropyl-phenyl)-3-[1-(3-fluoro-phenyl)-1-hydroxy-methylidene]-1,3-dihydro-indol-2-one]: the negative-log EC50 (pEC50) is 6.36 and the maximal response (Emax) came out at 153%.
